Publication PMC8213057, “Targeting ALK2: An Open Science Approach to Developing Therapeutics for the Treatment of Diffuse Intrinsic Pontine Glioma” (Journal of Medicinal Chemistry, 2020)

How the values were obtained:
[1] = target: ERK2/MAPK1 (Homo sapiens, UniProt P28482); test: biochemical; conditions: read-out: % enzyme activity, 1 μM; Run 1, Run 2
[2] = target: T1, NEK5 (Homo sapiens, UniProt Q6P3R8); conditions: 1 μM; Run 1, Run 2
T1 sequence (Q6P3R8 1-708): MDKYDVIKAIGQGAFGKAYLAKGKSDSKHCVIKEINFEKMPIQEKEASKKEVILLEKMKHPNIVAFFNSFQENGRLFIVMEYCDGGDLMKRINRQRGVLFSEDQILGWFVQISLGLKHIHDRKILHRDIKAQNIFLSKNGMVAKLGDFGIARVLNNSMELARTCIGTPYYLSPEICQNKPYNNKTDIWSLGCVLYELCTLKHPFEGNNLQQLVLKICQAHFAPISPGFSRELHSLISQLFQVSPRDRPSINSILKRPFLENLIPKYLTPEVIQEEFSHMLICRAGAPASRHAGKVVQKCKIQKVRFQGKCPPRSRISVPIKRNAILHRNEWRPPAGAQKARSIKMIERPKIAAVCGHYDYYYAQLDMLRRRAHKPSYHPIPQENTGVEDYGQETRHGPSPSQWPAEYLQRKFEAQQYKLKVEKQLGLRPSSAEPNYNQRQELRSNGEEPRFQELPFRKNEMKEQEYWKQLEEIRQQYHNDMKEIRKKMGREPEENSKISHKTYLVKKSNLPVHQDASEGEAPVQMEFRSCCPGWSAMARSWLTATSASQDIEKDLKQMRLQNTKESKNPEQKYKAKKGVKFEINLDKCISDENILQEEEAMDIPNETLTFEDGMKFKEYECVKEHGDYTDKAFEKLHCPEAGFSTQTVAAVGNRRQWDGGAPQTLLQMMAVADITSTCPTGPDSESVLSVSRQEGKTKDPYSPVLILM

[3] = target: T2, TSSK2 (Homo sapiens, UniProt Q96PF2); conditions: 1 μM; Run 1, Run 2
T2 sequence (Q96PF2 1-358): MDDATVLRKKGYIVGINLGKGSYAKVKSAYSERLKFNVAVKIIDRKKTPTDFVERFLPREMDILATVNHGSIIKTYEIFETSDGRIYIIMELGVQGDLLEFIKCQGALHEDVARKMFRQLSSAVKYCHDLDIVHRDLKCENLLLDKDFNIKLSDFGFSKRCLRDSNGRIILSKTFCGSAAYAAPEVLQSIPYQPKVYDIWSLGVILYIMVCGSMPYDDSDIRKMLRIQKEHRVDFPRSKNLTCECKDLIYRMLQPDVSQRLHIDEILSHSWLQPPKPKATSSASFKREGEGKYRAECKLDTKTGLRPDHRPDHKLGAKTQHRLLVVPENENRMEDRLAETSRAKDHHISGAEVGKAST

[4] = target: PKN1/PRK1 (Homo sapiens, UniProt Q16512); test: biochemical; conditions: read-out: % enzyme activity, 1 μM; Run 1, Run 2
[5] = target: TIE2/TEK (Homo sapiens, UniProt Q02763); test: biochemical; conditions: read-out: % enzyme activity, 1 μM; Run 1, Run 2
[6] = target: FGFR3 (Homo sapiens, UniProt P22607); conditions: 1 μM; Run 1, Run 2
Chain of FGFR3 (P22607 23-806): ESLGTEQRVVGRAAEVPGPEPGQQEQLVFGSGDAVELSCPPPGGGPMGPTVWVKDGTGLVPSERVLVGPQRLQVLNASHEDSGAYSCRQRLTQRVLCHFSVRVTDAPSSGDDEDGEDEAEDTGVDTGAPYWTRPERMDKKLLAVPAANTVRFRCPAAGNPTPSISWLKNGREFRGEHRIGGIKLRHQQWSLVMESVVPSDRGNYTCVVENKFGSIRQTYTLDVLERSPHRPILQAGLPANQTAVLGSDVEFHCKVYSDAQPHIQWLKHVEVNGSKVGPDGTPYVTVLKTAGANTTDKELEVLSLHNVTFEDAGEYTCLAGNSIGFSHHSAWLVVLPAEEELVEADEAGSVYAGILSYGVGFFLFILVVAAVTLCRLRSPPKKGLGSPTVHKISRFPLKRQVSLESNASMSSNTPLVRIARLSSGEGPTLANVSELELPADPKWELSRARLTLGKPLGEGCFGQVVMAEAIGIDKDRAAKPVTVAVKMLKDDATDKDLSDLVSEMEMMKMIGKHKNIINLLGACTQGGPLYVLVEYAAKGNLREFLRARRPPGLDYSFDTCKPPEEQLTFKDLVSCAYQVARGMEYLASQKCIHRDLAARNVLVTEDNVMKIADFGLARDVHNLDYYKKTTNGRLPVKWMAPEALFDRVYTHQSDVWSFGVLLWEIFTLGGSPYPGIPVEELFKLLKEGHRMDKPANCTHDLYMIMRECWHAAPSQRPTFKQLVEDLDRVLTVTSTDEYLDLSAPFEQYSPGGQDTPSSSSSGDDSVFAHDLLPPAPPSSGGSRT

[7] = target: CDK1/cyclin E (Homo sapiens, UniProt P06493); test: biochemical; conditions: read-out: % enzyme activity, 1 μM; Run 1, Run 2
Chain of CDK1/cyclin E (P24864 whole entry): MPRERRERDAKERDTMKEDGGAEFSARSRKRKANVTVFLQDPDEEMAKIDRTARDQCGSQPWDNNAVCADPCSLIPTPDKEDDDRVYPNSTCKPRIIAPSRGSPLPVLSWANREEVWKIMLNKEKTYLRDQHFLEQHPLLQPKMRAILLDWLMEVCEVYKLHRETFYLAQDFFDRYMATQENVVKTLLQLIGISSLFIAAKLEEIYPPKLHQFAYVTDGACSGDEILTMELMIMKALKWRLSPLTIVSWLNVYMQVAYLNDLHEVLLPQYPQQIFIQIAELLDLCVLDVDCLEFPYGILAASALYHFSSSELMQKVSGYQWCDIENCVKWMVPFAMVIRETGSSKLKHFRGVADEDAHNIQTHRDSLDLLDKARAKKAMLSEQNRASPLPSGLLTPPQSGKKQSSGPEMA
Chain of CDK1/cyclin E (P06493 whole entry): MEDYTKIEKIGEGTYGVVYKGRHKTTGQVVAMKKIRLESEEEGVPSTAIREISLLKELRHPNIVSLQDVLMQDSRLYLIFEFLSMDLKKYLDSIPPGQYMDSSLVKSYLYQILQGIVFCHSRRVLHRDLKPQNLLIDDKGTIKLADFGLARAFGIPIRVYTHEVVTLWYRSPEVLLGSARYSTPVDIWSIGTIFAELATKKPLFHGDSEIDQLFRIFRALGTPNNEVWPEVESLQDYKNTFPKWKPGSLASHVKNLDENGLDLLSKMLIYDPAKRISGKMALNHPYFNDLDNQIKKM

[8] = target: c-Src (Homo sapiens, UniProt P12931); test: biochemical; conditions: read-out: % enzyme activity, 1 μM; Run 1, Run 2
Chain of c-Src (P12931 whole entry): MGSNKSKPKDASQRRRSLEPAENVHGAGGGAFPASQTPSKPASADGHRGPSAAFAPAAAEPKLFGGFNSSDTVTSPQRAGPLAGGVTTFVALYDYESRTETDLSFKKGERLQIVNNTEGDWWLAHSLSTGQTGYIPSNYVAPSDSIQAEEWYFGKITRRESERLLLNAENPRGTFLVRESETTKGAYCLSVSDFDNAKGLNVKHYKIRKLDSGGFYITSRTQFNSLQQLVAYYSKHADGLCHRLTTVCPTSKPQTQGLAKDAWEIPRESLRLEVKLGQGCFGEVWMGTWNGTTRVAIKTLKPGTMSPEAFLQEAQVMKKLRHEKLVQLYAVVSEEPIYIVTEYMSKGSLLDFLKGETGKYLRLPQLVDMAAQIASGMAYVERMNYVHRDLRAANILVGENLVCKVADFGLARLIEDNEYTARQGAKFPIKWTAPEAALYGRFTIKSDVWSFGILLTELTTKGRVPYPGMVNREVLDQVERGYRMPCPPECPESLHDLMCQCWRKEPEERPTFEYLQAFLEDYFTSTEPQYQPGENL

[9] = target: AKT2 (Homo sapiens, UniProt P31751); test: biochemical; conditions: read-out: % enzyme activity, 1 μM; Run 1, Run 2
[10] = target: SLK/STK2 (Homo sapiens, UniProt Q9H2G2); conditions: 1 μM; Run 1, Run 2
[11] = target: T3, PKD2/PRKD2 (Homo sapiens, UniProt Q9BZL6); conditions: 1 μM; Run 1, Run 2
T3 sequence (Q9BZL6 1-878): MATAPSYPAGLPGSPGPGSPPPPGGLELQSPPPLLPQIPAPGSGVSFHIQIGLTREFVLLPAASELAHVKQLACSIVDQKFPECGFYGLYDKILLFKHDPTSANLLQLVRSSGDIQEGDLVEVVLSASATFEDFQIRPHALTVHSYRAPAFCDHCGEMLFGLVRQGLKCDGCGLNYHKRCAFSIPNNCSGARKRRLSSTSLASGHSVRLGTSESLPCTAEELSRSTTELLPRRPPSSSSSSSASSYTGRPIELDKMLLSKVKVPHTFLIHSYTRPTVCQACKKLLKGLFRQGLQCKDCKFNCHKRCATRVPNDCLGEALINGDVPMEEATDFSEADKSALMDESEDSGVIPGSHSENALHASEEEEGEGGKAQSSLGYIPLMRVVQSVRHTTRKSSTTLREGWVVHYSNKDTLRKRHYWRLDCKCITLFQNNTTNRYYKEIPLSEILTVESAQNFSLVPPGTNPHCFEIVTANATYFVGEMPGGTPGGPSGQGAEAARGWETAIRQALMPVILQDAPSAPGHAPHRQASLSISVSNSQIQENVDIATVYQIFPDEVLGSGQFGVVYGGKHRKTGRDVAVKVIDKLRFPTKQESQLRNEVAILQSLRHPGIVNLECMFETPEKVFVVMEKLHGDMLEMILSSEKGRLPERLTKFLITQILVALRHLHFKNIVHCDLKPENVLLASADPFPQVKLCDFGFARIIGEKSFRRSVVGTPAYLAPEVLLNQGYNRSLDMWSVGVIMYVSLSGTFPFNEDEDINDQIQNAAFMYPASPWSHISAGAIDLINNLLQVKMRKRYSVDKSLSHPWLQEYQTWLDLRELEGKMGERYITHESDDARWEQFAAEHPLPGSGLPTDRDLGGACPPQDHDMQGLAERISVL

[12] = target: T4, HGK/MAP4K4 (Homo sapiens, UniProt O95819); test: 375-member kinase panel; assay type: biochemical; conditions: Run 1, Run 2; for % enzyme activity: 1 μM; for remaining activity at 1 µM: read-out: % enzyme activity, 1 μM
T4 construct: purchased Reaction Biology Corporation
T4 sequence (O95819 whole entry): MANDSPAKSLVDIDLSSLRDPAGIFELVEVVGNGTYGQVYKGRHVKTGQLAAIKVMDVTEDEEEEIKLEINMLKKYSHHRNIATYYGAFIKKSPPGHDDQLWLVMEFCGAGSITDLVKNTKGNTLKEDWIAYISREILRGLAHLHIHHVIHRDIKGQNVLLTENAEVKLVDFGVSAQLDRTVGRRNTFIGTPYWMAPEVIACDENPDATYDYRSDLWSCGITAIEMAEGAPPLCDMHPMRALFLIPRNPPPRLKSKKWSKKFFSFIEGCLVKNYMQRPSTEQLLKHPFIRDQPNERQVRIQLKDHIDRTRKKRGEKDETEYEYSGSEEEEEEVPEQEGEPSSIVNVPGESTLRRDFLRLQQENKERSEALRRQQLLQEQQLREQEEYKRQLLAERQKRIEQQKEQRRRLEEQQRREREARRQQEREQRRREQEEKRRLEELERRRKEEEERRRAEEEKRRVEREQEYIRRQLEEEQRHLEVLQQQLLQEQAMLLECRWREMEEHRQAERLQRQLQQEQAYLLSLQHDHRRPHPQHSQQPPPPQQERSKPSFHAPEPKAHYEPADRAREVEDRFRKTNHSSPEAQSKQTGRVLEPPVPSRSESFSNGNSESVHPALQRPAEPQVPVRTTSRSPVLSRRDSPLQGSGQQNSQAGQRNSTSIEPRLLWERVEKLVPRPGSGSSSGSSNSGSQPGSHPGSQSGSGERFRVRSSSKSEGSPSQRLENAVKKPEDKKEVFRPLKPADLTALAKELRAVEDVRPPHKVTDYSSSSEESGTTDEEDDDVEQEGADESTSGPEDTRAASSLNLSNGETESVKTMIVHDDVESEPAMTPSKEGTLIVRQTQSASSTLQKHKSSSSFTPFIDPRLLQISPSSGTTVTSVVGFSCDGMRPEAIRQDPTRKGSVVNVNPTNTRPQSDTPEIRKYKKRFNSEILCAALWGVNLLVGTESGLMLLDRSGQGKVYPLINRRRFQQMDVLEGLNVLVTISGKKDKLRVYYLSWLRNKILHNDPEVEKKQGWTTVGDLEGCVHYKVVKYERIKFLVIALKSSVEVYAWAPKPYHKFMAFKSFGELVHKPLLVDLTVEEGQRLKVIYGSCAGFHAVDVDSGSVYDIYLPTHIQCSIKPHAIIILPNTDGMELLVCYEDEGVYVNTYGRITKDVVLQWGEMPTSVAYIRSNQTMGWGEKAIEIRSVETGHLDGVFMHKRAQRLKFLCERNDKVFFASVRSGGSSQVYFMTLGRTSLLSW

[13] = target: HIPK3 (Homo sapiens, UniProt Q9H422); conditions: 1 μM; Run 1, Run 2
Chain of HIPK3 (Q9H422 whole entry): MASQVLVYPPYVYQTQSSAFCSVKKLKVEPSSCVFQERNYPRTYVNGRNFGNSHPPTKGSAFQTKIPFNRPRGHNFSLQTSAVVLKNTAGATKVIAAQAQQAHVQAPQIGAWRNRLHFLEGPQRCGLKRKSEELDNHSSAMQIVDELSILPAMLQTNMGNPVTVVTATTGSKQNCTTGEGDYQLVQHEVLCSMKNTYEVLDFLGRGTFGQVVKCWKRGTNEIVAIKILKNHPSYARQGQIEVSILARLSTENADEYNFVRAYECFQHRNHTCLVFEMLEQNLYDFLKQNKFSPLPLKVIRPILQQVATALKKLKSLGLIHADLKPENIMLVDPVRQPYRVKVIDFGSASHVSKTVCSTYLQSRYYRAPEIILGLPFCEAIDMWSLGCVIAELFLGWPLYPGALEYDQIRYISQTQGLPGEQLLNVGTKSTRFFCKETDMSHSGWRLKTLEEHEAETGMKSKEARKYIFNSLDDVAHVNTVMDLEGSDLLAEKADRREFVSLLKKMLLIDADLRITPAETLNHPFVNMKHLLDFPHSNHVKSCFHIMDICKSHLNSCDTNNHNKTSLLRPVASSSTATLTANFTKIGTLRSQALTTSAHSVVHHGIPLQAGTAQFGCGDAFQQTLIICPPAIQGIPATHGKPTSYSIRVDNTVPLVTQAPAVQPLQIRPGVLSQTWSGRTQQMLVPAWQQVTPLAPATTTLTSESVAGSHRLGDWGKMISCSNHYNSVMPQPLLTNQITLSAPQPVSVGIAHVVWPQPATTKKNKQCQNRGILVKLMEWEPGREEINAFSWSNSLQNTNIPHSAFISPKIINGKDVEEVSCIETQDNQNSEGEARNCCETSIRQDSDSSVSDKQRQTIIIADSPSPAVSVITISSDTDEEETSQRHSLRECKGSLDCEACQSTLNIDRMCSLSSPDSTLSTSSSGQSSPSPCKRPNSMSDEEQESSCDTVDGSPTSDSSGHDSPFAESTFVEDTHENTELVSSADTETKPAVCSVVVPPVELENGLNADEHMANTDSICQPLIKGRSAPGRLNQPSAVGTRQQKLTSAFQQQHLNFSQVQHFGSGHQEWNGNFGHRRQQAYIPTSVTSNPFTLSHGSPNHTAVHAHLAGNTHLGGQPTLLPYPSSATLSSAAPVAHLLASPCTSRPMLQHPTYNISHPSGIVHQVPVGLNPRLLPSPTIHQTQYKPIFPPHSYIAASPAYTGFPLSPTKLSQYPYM

[14] = target: LYN B (Homo sapiens, UniProt P07948); test: biochemical; conditions: read-out: % enzyme activity, 1 μM; Run 1, Run 2
Chain of LYN B (P07948 1-491 isoform P07948-2): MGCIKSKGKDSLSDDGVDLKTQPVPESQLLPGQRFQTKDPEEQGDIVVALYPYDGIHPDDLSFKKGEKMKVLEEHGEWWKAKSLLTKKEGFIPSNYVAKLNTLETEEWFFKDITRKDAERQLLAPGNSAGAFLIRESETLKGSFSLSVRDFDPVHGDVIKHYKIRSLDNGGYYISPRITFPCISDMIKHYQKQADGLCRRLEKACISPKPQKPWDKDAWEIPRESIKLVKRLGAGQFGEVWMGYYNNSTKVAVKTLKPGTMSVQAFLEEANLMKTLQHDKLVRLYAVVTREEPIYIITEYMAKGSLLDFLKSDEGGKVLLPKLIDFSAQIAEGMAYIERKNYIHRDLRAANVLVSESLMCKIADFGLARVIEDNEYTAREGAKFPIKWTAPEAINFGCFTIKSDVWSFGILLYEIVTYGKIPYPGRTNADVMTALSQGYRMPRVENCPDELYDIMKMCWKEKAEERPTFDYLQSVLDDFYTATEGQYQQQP

Row | Structure (SMILES) | remaining activity at 1 µM [1] | % enzyme activity [2] | % enzyme activity [3] | remaining activity at 1 µM [4] | remaining activity at 1 µM [5] | % enzyme activity [6] | remaining activity at 1 µM [7] | remaining activity at 1 µM [8] | remaining activity at 1 µM [9] | % enzyme activity [10] | % enzyme activity [11] | % enzyme activity [12] | remaining activity at 1 µM [12] | % enzyme activity [13] | remaining activity at 1 µM [14]
1 | COc1cc(-c2cncc(-c3ccc(N4CCN(C)CC4)cc3)c2C)cc(F)c1C(N)=O [Compound 26a, 2-Fluoro-6-methoxy-4-(4-methyl-5-(4-(4-methylpiperazin-1-yl)phenyl)pyridin-3-yl)benzamide] | 92.5% | 97.51% | 98.77% | 98.5% | 93.8% | 100.98% | 98.3% | 96.6% | 91.9% | 96.16% | 95.72% | 20.97% | 22% | 97.73% | 99.2%
2 | COc1cc(-c2cncc(-c3ccc(N4C[C@@H](C)N(C)[C@@H](C)C4)cc3)c2C)cc(F)c1C(N)=O [Compound 26c, 2-Fluoro-6-methoxy-4-(4-methyl-5-(4-((3R,5S)-3,4,5-trimethylpiperazin-1-yl)phenyl)pyridin-3-yl)benzamide] | 89.8% | 93.10% | 99.71% | 98.7% | 93.4% | 102.08% | 92.4% | 100% | 93% | 100.64% | 98.89% | 28.35% | 30.6% | 89.08% | 98.2%
